{"source": "patent US7097977B1", "about": "“Target of anticancer agent” (priority 2000, dated 2006)", "system": "rad51c, rad51d, xrcc2 and xrcc3 mutant DT40 cells", "test": "colony survival assay on methyl cellulose containing cisplatin", "assay_type": "cell-based, avian", "conditions": "continuous cisplatin in methyl cellulose plate; each mutant vs normal cells", "procedure": "Further, the cells were plated on a plate of methyl cellulose containing cisplatin (manufactured by NIPPON KAYAKU CO., LTD.), and cultured in an atmosphere of 5% CO2 and 20% O2, at humidity of 100%, and 39° C. Thereafter, the colony survival assay was carried out, thereby evaluating sensitivity of the cells to cisplatin.\nHowever, as shown in the panel (B) of FIG. 3, each mutant was about 8-fold more sensitive than normal cells to killing by cisplatin (cis-diamminedichloroplatinum-II), a DNA cross-linking agent that has been widely used in chemotherapy. The complementation of these mutants with human cDNAs corresponding to mutant genes in these mutants restored their cisplatin sensitivity to nearly normal levels.", "data": [{"molecule": "N.N.[Cl][Pt][Cl]", "note": "[cisplatin, cis-diamminedichloroplatinum-II]", "values": [{"measurement": "sensitivity of each mutant to killing relative to normal cells", "value": "about 8 fold"}]}]}
